Measurements from patent US20250215029A1 (Recludix Pharma, Inc., priority 2022, published 2025).

Each molecule was assayed against T1, pY641-STAT6 in PBMC (Homo sapiens, UniProt P42226) (assay: MSD-pSTAT-PBMC Assay (pSTAT6, IL-4 stimulated)). Settings: STAT6, PBMC, compound 3 hrs, then 1 ng/mL IL-4 for 10 min; Table 115.
T1 construct: Cryopreserved Peripheral Blood Mononuclear Cells (PBMC) are from AllCells; host or cells: cryopreserved PBMC
T1 sequence (P42226 1-847): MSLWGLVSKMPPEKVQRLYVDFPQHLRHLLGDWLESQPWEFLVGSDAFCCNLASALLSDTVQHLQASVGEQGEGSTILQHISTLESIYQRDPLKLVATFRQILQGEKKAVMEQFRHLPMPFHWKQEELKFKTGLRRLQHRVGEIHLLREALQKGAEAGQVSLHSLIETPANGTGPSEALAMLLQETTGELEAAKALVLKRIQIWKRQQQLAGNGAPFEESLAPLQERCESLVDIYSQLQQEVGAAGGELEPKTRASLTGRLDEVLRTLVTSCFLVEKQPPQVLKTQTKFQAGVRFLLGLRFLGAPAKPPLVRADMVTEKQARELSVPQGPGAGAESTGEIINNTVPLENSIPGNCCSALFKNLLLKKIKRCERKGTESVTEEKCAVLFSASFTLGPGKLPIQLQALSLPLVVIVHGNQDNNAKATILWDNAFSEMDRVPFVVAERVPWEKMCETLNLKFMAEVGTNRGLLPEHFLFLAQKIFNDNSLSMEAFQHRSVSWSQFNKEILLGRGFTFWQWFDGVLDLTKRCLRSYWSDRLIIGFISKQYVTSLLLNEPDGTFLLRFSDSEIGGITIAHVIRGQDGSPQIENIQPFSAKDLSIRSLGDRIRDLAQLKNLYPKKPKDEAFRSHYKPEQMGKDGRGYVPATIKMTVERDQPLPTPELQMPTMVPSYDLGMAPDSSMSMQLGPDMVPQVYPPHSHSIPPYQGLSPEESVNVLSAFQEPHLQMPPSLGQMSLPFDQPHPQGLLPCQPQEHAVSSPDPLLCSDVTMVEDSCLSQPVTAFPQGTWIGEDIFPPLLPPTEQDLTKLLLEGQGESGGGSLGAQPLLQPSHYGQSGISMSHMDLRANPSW
Type: cell-based
Description: Cryopreserved Peripheral Blood Mononuclear Cells (PBMC) are from AllCells. Recombinant Human IL-4 and IL-6 are from Peprotech. Mouse monoclonal anti-STAT3 antibody, rabbit monoclonal anti-pY705-STAT3 antibody, rabbit monoclonal Anti-pY641-STAT6 antibody, and lysis buffer are from Cell Signaling Technology (CST). Mouse monoclonal anti-STAT6 antibody is from BioLegend. Assay plates, blocker, and anti-rabbit secondary antibody are from Meso Scale Discovery (MSD).
Cyropreserved PBMCs were thawed out and allowed to recover overnight in IMDM+10% heat-inactivated FBS prior to plating 50,000 (STAT3) or 25,000 (STAT6) cells per well in 96-well U-bottom tissue culture plates. Cells were treated with compound for 3 hrs, then stimulated with 10 ng/mL IL-6 (STAT3) or 1 ng/mL IL-4 (STAT6) for 10 min. Cells were then spun down and washed with ice-cold PBS prior to lysing the cell pellet with 1× lysis buffer (CST) with 1× HALT protease and phosphatase inhibitor cocktail (Thermo). Lysates were transferred to and incubated overnight at 4° C. with shaking in QuickPlex 96-well high bind assay plates (MSD) pre-coated overnight with 30 μL per well of 0.6 μg/mL mouse monoclonal anti-STAT3 antibody (STAT3) or 2 μg/mL mouse monoclonal anti-STAT6 antibody (STAT6) in 1× PBS, and pre-blocked for 1 hour with 3% Blocker-A (MSD). Captured protein in the assay plates were then washed and probed with 25 μL per well of […] rabbit monoclonal anti-pY705-STAT3 antibody (STAT3) or 0.18 μg/ml rabbit monoclonal Anti-pY641-STAT6 antibody (STAT6) in 1% Blocker-A for 1 hour at room temperature with shaking, then washed and probed with 25 ul per well of 1 ug/ml Sulfo-TAG Labeled Goat Anti-Rabbit Antibody (MSD) in 1% Blocker-A for 1 hour at room temperature with shaking. Assay plates were then washed and 150 μL of 1× Read Buffer-T (MSD) was added to each well prior to reading on an SQ120 MSD Plate Reader. Assay signal from each sample was subtracted by the signal from unstimulated control wells and normalized to DMSO control wells. IC50 values were calculated using Graph Pad Prism Dose-Response Nonlinear Regression with variable slope. For both pSTAT3 and pSTAT6 A=≤100 nM; B 100-1000 nM; C=>1000-3000 nM; D=>3 μM; and NT=Not Tested.
`CCCOC(=O)[C@H](C)NP(=O)(Oc1ccccc1)C(F)c1ccc2sc(C(=O)N[C@H]3CCCC[C@H]4CCC[C@@H](C(=O)N5CC(C#N)[C@H](c6ccccc6)C5)N4C3=O)cc2c1` (relative stereo) [Compound 269, propyl (((2-(((4S,7S,11aS)-4-((rel-trans)-3-cyano-4-phenylpyrrolidine-1-carbonyl)-6-oxodecahydro-2H-pyrido[1,2-a]azocin-7-yl)carbamoyl)benzo [b]thiophen-5-yl)fluoromethyl) (phenoxy)phosphoryl)-L-alaninate] was tested, and the IC50 was under 100 nM. In the case of `CCCOC(=O)[C@H](C)NP(=O)(Oc1ccccc1)C(F)c1ccc2sc(C(=O)N[C@H]3CCCCC[C@H]4[C@H](O)C[C@@H](C(=O)N5CC(C#N)[C@H](c6ccccc6)C5)N4C3=O)cc2c1` (relative stereo) [Compound 270, propyl (((2-(((1R,3S,6S,11aS)-3-((rel-trans)-3-cyano-4-phenylpyrrolidine-1-carbonyl)-1-hydroxy-5-oxodecahydro-1H-pyrrolo[1,2-a]azonin-6-yl)carbamoyl)benzo [b]thiophen-5-yl)fluoromethyl) (phenoxy)phosphoryl)-L-alaninate], the IC50 is reported as 100 to 1000 nM. Molecule `CCCOC(=O)[C@H](C)NP(=O)(Oc1ccccc1)C(F)c1ccc2sc(C(=O)N[C@H]3CCCC[C@H]4CC[C@@H](C(=O)N5C[C@@H](C#N)[C@H](c6cccn(C)c6=O)C5)N4C3=O)cc2c1` (relative stereo) [Compound 299, propyl (((2-(((3S,6S,10aS)-3-(rel-(trans)-3-cyano-4-(1-methyl-2-oxo-1,2-dihydropyridin-3-yl)pyrrolidine-1-carbonyl)-5-oxodecahydropyrrolo [1,2-a]azocin-6-yl)carbamoyl)benzo [b]thiophen-5-yl)fluoromethyl) (phenoxy)phosphoryl)-L-alaninate] has an IC50 of 100 to 1000 nM. Work on `CCCOC(=O)[C@H](C)NP(=O)(Oc1ccccc1)C(F)c1ccc2sc(C(=O)N[C@H]3CCCC[C@H]4CC[C@@H](C(=O)N5C[C@H](c6cccnc6OC)[C@@H](C#N)C5)N4C3=O)cc2c1` (relative stereo) [Compound 322, propyl (((2-(((3S,6S,10aS)-3-((rel-trans)-3-cyano-4-(2-methoxypyridin-3-yl)pyrrolidine-1-carbonyl)-5-oxodecahydropyrrolo [1,2-a]azocin-6-yl)carbamoyl)benzo [b]thiophen-5-yl)fluoromethyl) (phenoxy)phosphoryl)-L-alaninate] yielded an IC50 of under 100 nM. With `CCCOC(=O)[C@H](C)NP(=O)(Oc1ccccc1)[C@@H](F)c1ccc2sc(C(=O)N[C@H]3CCCC[C@H]4CC[C@@H](C(=O)N5C[C@H](c6cccc(OC(F)F)c6)C(C#N)C56CC6)N4C3=O)cc2c1` (relative stereo) [Compound 338, propyl (((R)-(2-(((3S,6S,10aS)-3-((rel-trans)-7-cyano-6-(3-(difluoromethoxy)phenyl)-4-azaspiro[2.4]heptane-4-carbonyl)-5-oxodecahydropyrrolo [1,2-a]azocin-6-yl)carbamoyl)benzo [b]thiophen-5-yl)fluoromethyl) (phenoxy)phosphoryl)-L-alaninate] the IC50 was under 100 nM.

These molecules were tested against T2, pY705-STAT3 in PBMC (Homo sapiens, UniProt P40763) (assay: MSD-pSTAT-PBMC Assay (pSTAT3, IL-6 stimulated)). Settings: PBMC, compound 3 hrs, then 10 ng/mL IL-6 for 10 min; Table 115; read-out: STAT3.
T2 construct: Cryopreserved Peripheral Blood Mononuclear Cells (PBMC) are from AllCells; host or cells: cryopreserved PBMC
T2 sequence (P40763 whole entry): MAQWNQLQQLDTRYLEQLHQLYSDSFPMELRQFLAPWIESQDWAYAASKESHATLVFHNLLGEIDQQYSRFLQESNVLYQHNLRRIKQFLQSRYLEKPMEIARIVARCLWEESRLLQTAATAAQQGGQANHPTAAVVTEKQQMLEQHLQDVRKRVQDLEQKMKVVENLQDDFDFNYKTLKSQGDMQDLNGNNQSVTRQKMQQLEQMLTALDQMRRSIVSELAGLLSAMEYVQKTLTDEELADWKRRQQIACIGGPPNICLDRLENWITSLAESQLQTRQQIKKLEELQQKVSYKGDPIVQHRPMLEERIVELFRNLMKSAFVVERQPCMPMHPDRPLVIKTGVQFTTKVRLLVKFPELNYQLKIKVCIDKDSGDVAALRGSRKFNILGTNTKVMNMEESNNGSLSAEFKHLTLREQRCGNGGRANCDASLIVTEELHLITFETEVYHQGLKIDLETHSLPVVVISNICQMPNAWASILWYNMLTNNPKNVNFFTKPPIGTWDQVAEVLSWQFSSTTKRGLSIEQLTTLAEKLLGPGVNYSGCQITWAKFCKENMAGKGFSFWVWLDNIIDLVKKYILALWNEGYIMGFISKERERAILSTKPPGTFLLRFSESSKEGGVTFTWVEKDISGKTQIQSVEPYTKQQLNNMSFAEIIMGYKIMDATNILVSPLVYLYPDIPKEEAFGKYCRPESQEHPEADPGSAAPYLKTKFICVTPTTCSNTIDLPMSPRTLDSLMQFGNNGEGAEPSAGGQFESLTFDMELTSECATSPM
Type: cell-based
Outline: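 pY705-STAT3 was detected electrochemiluminescently on total-STAT3 capture plates, using lysates of human PBMCs given compound for 3 h and then IL-6 (10 ng/mL, 10 min). Values were background-subtracted against unstimulated wells and set relative to DMSO. IC50 was fitted with variable slope.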
In the case of `CC(C)CC(=O)SCCOP(=O)(OCOC(=O)OC1COC1)C(F)(F)c1ccc2sc(C(=O)N[C@H]3CCC[C@H]4CC[C@@H](C(=O)N5CC(c6ncccn6)C5)N4C3=O)cc2c1` (stereo partly drawn) [Compound 1095, S-(2-(((difluoro(2-(((3S,6S,9aS)-5-oxo-3-(3-(pyrimidin-2-yl)azetidine-1-carbonyl)octahydro-1H-pyrrolo[1,2-a]azepin-6-yl)carbamoyl)benzo [b]thiophen-5-yl)methyl) ((((oxetan-3-yloxy)carbonyl)oxy)methoxy)phosphoryl)oxy)ethyl) 3-methyl-butanethioate], the IC50 is reported as under 100 nM. `CC(C)CC(=O)SCCOP(=O)(OCOC(=O)OC(C)C)[C@H](F)c1ccc2sc(C(=O)N[C@H]3CCC[C@H]4CC[C@@H](C(=O)N5CC(c6cccnc6)C5)N4C3=O)cc2c1` (stereo partly drawn) [Compound 1096, S-(2-((((S)-fluoro(2-(((3S,6S,9aS)-5-oxo-3-(3-(pyridin-3-yl)azetidine-1-carbonyl)octahydro-1H-pyrrolo[1,2-a]azepin-6-yl)carbamoyl)benzo [b]thiophen-5-yl)methyl) (((isopropoxy-carbonyl)oxy)methoxy)phosphoryl)oxy)ethyl) 3-methylbutanethioate] showed an IC50 of under 100 nM. `CC(C)CC(=O)SCCOP(=O)(OCOC(=O)O[C@@H]1CCOC1)C(F)(F)c1ccc2sc(C(=O)N[C@H]3CCC[C@H]4CC[C@@H](C(=O)N5CC(c6ncccn6)C5)N4C3=O)cc2c1` (stereo partly drawn) [Compound 1098, S-(2-(((difluoro(2-(((3S,6S,9aS)-5-oxo-3-(3-(pyrimidin-2-yl)azetidine-1-carbonyl)octahydro-1H-pyrrolo[1,2-a]azepin-6-yl)carbamoyl)benzo [b]thiophen-5-yl)methyl)((((((R)-tetrahydrofuran-3-yl)oxy)carbonyl)oxy)methoxy)phosphoryl)oxy)ethyl) 3-methylbutanethioate] gave an IC50 of under 100 nM. For `CC(C)CC(=O)SCCOP(=O)(OCOC(=O)O[C@H]1CCOC1)C(F)(F)c1ccc2sc(C(=O)N[C@H]3CCC[C@H]4CC[C@@H](C(=O)N5CC(c6ncccn6)C5)N4C3=O)cc2c1` (stereo partly drawn) [Compound 1099, S-(2-(((difluoro(2-(((3S,6S,9aS)-5-oxo-3-(3-(pyrimidin-2-yl)azetidine-1-carbonyl)octahydro-1H-pyrrolo[1,2-a]azepin-6-yl)carbamoyl)benzo [b]thiophen-5-yl)methyl)((((((S)-tetrahydrofuran-3-yl)oxy)carbonyl)oxy)methoxy)phosphoryl)oxy)ethyl) 3-methylbutanethioate], the IC50 was under 100 nM. `COCCOCC(=O)SCCOP(=O)(OCCSC(=O)COCCOC)C(F)(F)c1ccc2sc(C(=O)N[C@H]3CCC[C@H]4CC[C@@H](C(=O)N5CC(c6cccnc6)C5)N4C3=O)cc2c1` [Compound 1102, S,S′-((((difluoro(2-(((3S,6S,9aS)-5-oxo-3-(3-(pyridin-3-yl)azetidine-1-carbonyl)octahydro-1H-pyrrolo[1,2-a]azepin-6-yl)carbamoyl)benzo [b]thiophen-5-yl)methyl)phosphoryl)bis(oxy))bis(ethane-2,1-diyl)) bis(2-(2-methoxyethoxy) ethanethioate)] gave an IC50 of under 100 nM. For `CC(C)CC(=O)SCCOP(=O)(OCOC(=O)OC1CCOCC1)C(F)(F)c1ccc2sc(C(=O)N[C@H]3CCC[C@H]4CC[C@@H](C(=O)N5CC(c6ncccn6)C5)N4C3=O)cc2c1` (stereo partly drawn) [Compound 1105, S-(2-(((difluoro(2-(((3S,6S,9aS)-5-oxo-3-(3-(pyrimidin-2-yl)azetidine-1-carbonyl)octahydro-1H-pyrrolo[1,2-a]azepin-6-yl)carbamoyl)benzo [b]thiophen-5-yl)methyl)(((((tetra-hydro-2H-pyran-4-yl)oxy)carbonyl)oxy)methoxy)phosphoryl)oxy)ethyl) 3-methylbutanethioate], the IC50 was under 100 nM.
